Test results taken from patent US20090311217A1, “3-SUBSTITUTED-1H-INDOLE COMPOUNDS, THEIR USE AS MTOR KINASE AND PI3 KINASE INHIBITORS, AND THEIR SYNTHESES” (priority 2008, published 2009).
Like-named read-outs stand apart in the source and are kept apart here.

How the values were obtained:
Type in all cases: biochemical
PI3K-delta = PI3K-delta (Homo sapiens, UniProt O00329); assay: PI3K-delta fluorescence polarization assay; conditions: read-out: PI3Kδ Avg. IC50
PI3K-alpha = PI3K-alpha (Homo sapiens, UniProt P42336); assay: PI3K-alpha fluorescence polarization assay
PI3K-gamma = PI3K-gamma (Homo sapiens, UniProt P48736); assay: PI3K-gamma fluorescence polarization assay; conditions: PI3Kγ Avg. IC50
How it was run: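 FP competition read-out: PIP3 produced displaces BODIPY-TMR-IP4 (5 nM) from GST-GRP1 PH domain (100 nM). Kinase step: 5 ng enzyme, 2.5 μM diC8-PIP2, 25 μM ATP, pH 7 HEPES/MgCl2, 1 h, 25° C; EDTA stop.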

PI3K-beta = PI3K-beta (Homo sapiens, UniProt P42338); assay: PI3K-beta fluorescence polarization assay; conditions: read-out: PI3Kβ Avg. IC50
Description: PI3K-Alpha, PI3K-Beta, PI3K-Gamma, and PI3K-delta Fluorescence Polarization Assay Protocols
PI3-Kinase reactions were performed in 5 mM HEPES, pH 7, 2.5 mM MgCl2, and 25 μM ATP, with diC8-PI(4,5)P2 (Echelon, Salt Lake City Utah) as substrate. Nunc 384-well black polypropylene fluorescent plates were used for PI3K assays. Reactions were quenched by the addition of EDTA to a final concentration of 10 mM. Final reaction volumes were 10 μl. For evaluation of PI3K inhibitors, 5 ng of enzyme (PI3K-alpha, beta, gamma, or delta) and 2.5 μM of substrate was used per […] reaction volume, and inhibitor concentrations ranged from 100 μM to 20 μM; the final level of DMSO in reactions never exceeded 2%. Reactions were allowed to proceed for one hour at 25° C. After 1 hour, GST-tagged GRP1 (general receptor for phosphoinositides) PH domain fusion protein was added to a final concentration of 100 nM, and BODIPY-TMRI(1,3,4,5)P4 (Echelon) was also added to a final concentration of 5 nM. Final sample volumes were 25 μl with a final DMSO concentration of 0.8%. Assay Plates were read on Perkin-Elmer Envision plate readers with appropriate filters for Tamra [BODIPY-TMRI(1,3,4,5)P4]. Data obtained were used to calculate enzymatic activity and enzyme inhibition by inhibitor compounds.

human TOR = biological target: T1, human TOR (Homo sapiens, UniProt P42345); assay: mTOR enzyme assay (DELFIA, His6-S6K substrate); conditions: read-out: mTOR Kinase Avg. IC50
T1 construct: FLAG

Sequence of PI3K-alpha (P42336 whole entry, species assumed): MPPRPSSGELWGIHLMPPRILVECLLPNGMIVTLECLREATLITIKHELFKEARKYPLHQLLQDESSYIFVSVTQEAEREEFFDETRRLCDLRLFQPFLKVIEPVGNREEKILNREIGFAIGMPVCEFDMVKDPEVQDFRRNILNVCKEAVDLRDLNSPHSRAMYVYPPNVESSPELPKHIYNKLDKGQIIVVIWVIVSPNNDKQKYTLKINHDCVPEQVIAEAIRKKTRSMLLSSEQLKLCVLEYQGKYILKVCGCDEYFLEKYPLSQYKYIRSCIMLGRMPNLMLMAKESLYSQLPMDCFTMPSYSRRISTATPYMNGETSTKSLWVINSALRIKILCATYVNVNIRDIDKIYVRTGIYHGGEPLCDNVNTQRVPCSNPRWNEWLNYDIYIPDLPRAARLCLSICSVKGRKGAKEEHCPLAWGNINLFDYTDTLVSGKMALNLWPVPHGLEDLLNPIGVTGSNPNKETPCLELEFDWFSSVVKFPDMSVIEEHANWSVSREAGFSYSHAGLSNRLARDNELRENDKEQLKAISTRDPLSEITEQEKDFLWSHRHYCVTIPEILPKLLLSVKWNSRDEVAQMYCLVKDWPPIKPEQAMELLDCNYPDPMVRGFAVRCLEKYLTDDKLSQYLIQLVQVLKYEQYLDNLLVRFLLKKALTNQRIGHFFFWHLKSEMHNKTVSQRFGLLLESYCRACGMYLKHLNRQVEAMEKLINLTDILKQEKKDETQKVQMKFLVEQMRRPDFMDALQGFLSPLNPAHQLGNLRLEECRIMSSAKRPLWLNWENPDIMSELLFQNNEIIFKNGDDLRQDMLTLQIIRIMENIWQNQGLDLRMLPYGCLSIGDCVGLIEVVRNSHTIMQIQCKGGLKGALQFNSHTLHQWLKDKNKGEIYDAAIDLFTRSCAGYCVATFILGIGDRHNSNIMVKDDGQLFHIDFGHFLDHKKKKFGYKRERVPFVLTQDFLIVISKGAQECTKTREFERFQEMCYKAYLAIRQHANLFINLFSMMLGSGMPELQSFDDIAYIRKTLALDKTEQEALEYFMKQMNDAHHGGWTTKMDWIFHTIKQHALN
Sequence of PI3K-alpha (P27986 whole entry partner, species assumed): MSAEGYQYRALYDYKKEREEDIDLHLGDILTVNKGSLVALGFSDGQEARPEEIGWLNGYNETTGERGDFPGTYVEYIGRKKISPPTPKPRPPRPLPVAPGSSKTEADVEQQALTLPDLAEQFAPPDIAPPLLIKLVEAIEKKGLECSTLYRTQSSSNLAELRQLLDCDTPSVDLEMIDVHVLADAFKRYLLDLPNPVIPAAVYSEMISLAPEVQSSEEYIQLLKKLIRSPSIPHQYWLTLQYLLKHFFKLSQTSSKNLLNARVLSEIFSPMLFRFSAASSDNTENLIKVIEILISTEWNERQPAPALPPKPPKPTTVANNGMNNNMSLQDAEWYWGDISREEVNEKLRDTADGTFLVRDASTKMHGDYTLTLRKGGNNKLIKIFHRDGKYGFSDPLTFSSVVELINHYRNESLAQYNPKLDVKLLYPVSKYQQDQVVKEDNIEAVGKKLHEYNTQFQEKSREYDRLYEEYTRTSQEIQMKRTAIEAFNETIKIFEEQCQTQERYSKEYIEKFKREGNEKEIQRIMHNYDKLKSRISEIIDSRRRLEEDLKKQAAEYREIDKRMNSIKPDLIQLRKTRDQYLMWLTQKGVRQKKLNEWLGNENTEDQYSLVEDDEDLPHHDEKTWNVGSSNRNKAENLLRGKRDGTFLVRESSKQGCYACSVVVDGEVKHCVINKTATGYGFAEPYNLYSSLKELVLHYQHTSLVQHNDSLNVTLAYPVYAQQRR
Sequence of PI3K-delta (O00329 whole entry, species assumed): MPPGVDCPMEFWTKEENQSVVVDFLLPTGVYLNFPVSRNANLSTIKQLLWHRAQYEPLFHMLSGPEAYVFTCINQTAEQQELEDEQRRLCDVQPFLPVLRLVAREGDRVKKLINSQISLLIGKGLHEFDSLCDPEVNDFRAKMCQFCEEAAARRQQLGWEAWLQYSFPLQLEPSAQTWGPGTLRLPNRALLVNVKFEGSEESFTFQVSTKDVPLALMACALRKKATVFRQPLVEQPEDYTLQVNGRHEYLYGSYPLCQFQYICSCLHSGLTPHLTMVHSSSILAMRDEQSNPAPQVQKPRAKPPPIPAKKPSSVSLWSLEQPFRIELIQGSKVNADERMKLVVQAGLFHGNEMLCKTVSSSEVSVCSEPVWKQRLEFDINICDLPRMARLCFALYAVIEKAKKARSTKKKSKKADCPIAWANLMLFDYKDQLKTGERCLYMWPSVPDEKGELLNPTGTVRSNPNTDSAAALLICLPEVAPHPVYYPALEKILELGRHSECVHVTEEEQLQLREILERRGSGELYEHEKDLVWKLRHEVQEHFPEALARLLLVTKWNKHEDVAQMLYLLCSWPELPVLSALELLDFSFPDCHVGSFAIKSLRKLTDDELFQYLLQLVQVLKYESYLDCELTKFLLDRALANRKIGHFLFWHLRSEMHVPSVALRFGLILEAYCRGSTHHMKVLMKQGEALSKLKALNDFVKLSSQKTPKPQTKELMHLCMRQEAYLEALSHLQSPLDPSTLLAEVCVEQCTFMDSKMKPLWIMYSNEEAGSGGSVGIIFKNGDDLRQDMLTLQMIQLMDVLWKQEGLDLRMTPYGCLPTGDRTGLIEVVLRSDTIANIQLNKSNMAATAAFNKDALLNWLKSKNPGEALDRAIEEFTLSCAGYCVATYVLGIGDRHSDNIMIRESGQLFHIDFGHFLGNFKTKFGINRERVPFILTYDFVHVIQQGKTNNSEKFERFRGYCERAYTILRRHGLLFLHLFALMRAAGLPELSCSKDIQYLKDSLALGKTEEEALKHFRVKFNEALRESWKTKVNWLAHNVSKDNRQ
Sequence of PI3K-delta (P27986 whole entry partner, species assumed): as the sequence (P27986 whole entry partner, species assumed) above
Sequence of PI3K-gamma (P48736 whole entry, species assumed, the tested form may be a part): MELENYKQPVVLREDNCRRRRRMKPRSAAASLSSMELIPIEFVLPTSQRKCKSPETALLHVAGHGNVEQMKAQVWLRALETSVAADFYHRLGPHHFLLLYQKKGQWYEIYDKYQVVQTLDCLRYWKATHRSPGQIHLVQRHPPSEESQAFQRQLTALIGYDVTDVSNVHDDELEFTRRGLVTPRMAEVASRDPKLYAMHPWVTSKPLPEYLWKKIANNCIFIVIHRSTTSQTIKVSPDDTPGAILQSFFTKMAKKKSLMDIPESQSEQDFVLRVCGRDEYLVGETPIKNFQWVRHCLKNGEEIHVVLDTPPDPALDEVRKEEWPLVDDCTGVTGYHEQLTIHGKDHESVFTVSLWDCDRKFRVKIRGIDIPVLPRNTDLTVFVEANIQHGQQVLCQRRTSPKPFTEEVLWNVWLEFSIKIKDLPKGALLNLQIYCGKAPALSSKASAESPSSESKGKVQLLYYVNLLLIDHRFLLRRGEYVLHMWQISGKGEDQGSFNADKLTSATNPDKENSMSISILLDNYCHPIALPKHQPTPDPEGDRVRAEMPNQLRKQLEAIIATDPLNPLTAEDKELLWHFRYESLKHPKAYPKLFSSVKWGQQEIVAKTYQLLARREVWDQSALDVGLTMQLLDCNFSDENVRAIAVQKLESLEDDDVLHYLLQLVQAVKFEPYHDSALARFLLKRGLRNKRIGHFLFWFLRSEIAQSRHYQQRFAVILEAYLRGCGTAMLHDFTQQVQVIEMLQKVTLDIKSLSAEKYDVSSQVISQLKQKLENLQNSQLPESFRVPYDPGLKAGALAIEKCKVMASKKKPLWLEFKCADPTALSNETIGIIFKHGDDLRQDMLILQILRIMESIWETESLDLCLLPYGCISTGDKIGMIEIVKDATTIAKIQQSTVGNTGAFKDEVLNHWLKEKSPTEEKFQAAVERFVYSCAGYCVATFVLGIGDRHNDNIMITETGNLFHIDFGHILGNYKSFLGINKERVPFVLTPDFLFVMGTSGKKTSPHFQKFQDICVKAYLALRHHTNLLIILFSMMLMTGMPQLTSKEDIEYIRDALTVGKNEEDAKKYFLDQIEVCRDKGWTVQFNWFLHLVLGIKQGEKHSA
Sequence of PI3K-beta (P42338 whole entry, species assumed): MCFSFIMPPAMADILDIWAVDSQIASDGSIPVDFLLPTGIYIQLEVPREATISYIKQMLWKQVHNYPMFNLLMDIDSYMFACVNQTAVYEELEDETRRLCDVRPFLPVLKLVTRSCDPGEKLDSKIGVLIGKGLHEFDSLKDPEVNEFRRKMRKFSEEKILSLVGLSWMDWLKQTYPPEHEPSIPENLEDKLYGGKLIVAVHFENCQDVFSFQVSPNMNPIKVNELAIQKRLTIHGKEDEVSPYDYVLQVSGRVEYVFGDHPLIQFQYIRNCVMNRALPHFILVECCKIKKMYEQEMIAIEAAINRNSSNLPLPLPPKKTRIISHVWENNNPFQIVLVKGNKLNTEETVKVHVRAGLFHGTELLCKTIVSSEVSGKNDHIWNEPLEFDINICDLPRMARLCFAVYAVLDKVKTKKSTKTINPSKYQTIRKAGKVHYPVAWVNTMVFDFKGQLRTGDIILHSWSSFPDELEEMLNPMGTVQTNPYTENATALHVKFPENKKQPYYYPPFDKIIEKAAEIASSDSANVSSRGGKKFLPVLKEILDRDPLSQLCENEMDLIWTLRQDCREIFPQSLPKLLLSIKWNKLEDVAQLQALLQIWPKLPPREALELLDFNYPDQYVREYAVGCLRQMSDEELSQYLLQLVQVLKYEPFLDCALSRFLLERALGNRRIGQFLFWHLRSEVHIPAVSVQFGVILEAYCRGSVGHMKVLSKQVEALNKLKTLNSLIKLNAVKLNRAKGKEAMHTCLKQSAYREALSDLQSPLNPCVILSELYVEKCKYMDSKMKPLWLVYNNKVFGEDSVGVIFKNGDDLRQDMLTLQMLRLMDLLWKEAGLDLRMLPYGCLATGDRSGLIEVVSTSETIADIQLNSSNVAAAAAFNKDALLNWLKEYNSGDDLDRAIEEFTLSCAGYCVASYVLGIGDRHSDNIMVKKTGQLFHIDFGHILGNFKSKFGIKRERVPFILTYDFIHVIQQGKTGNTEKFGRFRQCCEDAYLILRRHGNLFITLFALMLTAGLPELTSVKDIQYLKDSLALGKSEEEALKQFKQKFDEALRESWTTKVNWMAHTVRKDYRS
Sequence of PI3K-beta (P27986 whole entry partner, species assumed): as the sequence (P27986 whole entry partner, species assumed) above

Structure (SMILES) | IC50 (PI3K-delta) | IC50 (PI3K-alpha; read-out: PI3Kα Avg. IC50) | IC50 (PI3K-gamma) | IC50 (PI3K-beta) | IC50 (human TOR) | IC50 (PI3K-alpha; PI3Kα Avg. IC50)
COc1ccc2c(c1)c(C=C1Oc3cc(O)cc(O)c3C1=O)c(C)n2CCCCN1CCC(N(C)C)C1 (stereo not drawn) [Example 99, 2-[(1-{4-[3-(dimethylamino)pyrrolidin-1-yl]butyl}-5-methoxy-2-methyl-1H-indol-3-yl)methylene]-4,6-dihydroxy-1-benzofuran-3(2H)-one] | 2 nM | 8.3 nM | 331 nM | 8 nM | 72.5 nM | 
COc1ccc2c(c1)c(/C=C1\Oc3cc(O)ccc3C1=O)c(C)n2CCCN1CCCC1 [Example 356, (2Z)-6-Hydroxy-2-{[5-methoxy-2-methyl-1-(3-pyrrolidin-1-ylpropyl)-1H-indol-3-yl]methylene}-1-benzofuran-3(2H)-one] | 1.2 nM | 15.5 nM | 408 nM | 116 nM | > 800 nM | 
COc1ccc2[nH]c(C)c(C=C3Oc4cccc(O)c4C3=O)c2c1 [Example 86, 4-hydroxy-2-[(5-methoxy-2-methyl-1H-indol-3-yl)methylene]-1-benzofuran-3(2H)-one] | 47 nM | 184 nM | 355 nM | 98 nM | 84.8 nM | 
COc1ccc2c(c1)c(/C=C1\Oc3cc(O)cc(O)c3C1=O)cn2CC(=O)N(C)C [Example 318, 2-{3-[(Z)-(4,6-Dihydroxy-3-oxo-1-benzofuran-2(3H)-ylidene)methyl]-5-methoxy-1H-indol-1-yl}-N,N-dimethylacetamide] | 27 nM | 83.3 nM | 686 nM | 739 nM | 250 nM | 
COc1ccc2c(c1)c(C=C1Oc3cc(O)cc(O)c3C1=O)c(C)n2C [Example 89, 4,6-dihydroxy-2-[(5-methoxy-1,2-dimethyl-1H-indol-3-yl)methylene]-1-benzofuran-3(2H)-one] | 8 nM |  | 54.3 nM | 19 nM | 3.5 nM | 6.9 nM
COc1ccc2[nH]c(-c3ccccc3)c(/C=C3\Oc4cc(O)ccc4C3=O)c2c1 [Example 310, (2Z)-6-Hydroxy-2-[(5-methoxy-2-phenyl-1H-indol-3-yl)methylene]-1-benzofuran-3(2H)-one] | 0.9 nM | < 2.1 nM | 13.5 nM | 11.5 nM | 92 nM | 
COc1ccc2c(c1)c(/C=C1\Oc3cc(O)cc(O)c3C1=O)c(C)n2CCO [Example 321, (2Z)-4,6-Dihydroxy-2-{[1-(2-hydroxyethyl)-5-methoxy-2-methyl-1H-indol-3-yl]methylene}-1-benzofuran-3(2H)-one] | 1.8 nM | 2 nM | 15.5 nM | 10 nM | 6.85 nM | 
COc1ccc2c(c1)c(/C=C1\Oc3cc(O)ccc3C1=O)c(C(=O)N(C)C)n2CCN1CCN(C)CC1 [Example 335, 3-[(Z)-(6-Hydroxy-3-oxo-1-benzofuran-2(3H)-ylidene)methyl]-5-methoxy-N,N-dimethyl-1-[2-(4-methylpiperazin-1-yl)ethyl]-1H-indole-2-carboxamide] | 2 nM | 9 nM | 588 nM | 22 nM | 1650 nM | 
Cc1[nH]c2ccc(Br)cc2c1/C=C1\Oc2cc(O)cc(O)c2C1=O [Example 61, (2Z)-2-[(5-bromo-2-methyl-1H-indol-3-yl)methylene]-4,6-dihydroxy-1-benzofuran-3(2H)-one] | 374 nM |  | 2220 nM | 567 nM | 190 nM | 179 nM
COc1ccc2[nH]c(C(=O)N3CCN(C)CC3)c(/C=C3\Oc4cc(O)cc(O)c4C3=O)c2c1 [Example 331, (2Z)-4,6-Dihydroxy-2-({5-methoxy-2-[(4-methylpiperazin-1-yl)carbonyl]-1H-indol-3-yl}methylene)-1-benzofuran-3(2H)-one] | 6.5 nM | 4 nM | 39.5 nM | 5.5 nM | 49.5 nM | 
O=C1C(=Cc2c(-c3ccccc3)[nH]c3ccccc23)Oc2cc(O)cc(O)c21 [Example 14, 4,6-dihydroxy-2-[(2-phenyl-1H-indol-3-yl)methylene]-1-benzofuran-3(2H)-one] | 381 nM |  | 2780 nM | 736 nM | 130 nM | 1030 nM
COc1ccc2c(c1)c(C=C1Oc3cc(O)cc(O)c3C1=O)c(C)n2CCCCl [Example 88, 2-{[1-(3-chloropropyl)-5-methoxy-2-methyl-1H-indol-3-yl]methylene}-4,6-dihydroxy-1-benzofuran-3(2H)-one] | 3.5 nM | 9.7 nM | 73.7 nM | 52 nM | < 21 nM | 
COc1ccc2c(c1)c(/C=C1\Oc3cc(O)ccc3C1=O)c(C1CC1)n2CCn1cccn1 [Example 355, (2Z)-2-({2-Cyclopropyl-5-methoxy-1-[2-(1H-pyrazol-1-yl)ethyl]-1H-indol-3-yl}methylene)-6-hydroxy-1-benzofuran-3(2H)-one] | 2.5 nM | 8.6 nM | 36 nM | 17 nM | 13 nM | 
COc1ccc2c(c1)c(/C=C1\Oc3cc(O)cc(O)c3C1=O)c(C1CC1)n2CCn1ccnc1 [Example 334, (2Z)-2-({2-Cyclopropyl-1-[2-(1H-imidazol-1-yl)ethyl]-5-methoxy-1H-indol-3-yl}methylene)-4,6-dihydroxy-1-benzofuran-3(2H)-one] | 1.5 nM | 1.3 nM | 2.2 nM | 1.2 nM | < 17 nM | 
O=C1/C(=C/c2c(-c3ccc(F)cc3)[nH]c3ccccc23)Oc2c1ccc(O)c2O [Example 56, (2Z)-2-{[2-(4-fluorophenyl)-1H-indol-3-yl]methylene}-6,7-dihydroxy-1-benzofuran-3(2H)-one] | 108 nM | 190 nM | 1950 nM | 251 nM | > 20000 nM | 
COc1ccc2c(c1)c(/C=C1\Oc3cc(O)cc(O)c3C1=O)cn2CCO [Example 317, (2Z)-4,6-Dihydroxy-2-{[1-(2-hydroxyethyl)-5-methoxy-1H-indol-3-yl]methylene}-1-benzofuran-3(2H)-one] | 8.5 nM | 17 nM | 92.5 nM | 64 nM | 77.5 nM | 
COc1ccc2c(c1)c(/C=C1\Oc3cc(O)cc(F)c3C1=O)c(C)n2CCN1CCN(C)CC1 [Example 359, (2Z)-4-Fluoro-6-hydroxy-2-({5-methoxy-2-methyl-1-[2-(4-methylpiperazin-1-yl)ethyl]-1H-indol-3-yl}methylene)-1-benzofuran-3(2H)-one] | 1.5 nM | 11 nM | 232 nM | 18.5 nM | > 800 nM | 
COc1ccc2c(c1)c(/C=C1\Oc3cc(O)cc(O)c3C1=O)cn2CCN1CCN(C)CC1 [Example 308, (2Z)-4,6-Dihydroxy-2-({5-methoxy-1-[2-(4-methylpiperazin-1-yl)ethyl]-1H-indol-3-yl}methylene)-1-benzofuran-3(2H)-one] | 5.5 nM | 25.5 nM | 1030 nM | 23.5 nM | 270 nM | 
COc1ccc2c(c1)c(/C=C1\Oc3cc(O)ccc3C1=O)c(C(=O)N(C)C)n2CCCN(C)C [Example 345, 1-[3-(Dimethylamino)propyl]-3-[(Z)-(6-hydroxy-3-oxo-1-benzofuran-2(3H)-ylidene)methyl]-5-methoxy-N,N-dimethyl-1H-indole-2-carboxamide] | 2 nM | 24 nM | 692 nM | 100 nM | > 4000 nM | 
COc1ccc2c(c1)c(C=C1Oc3cc(O)cc(O)c3C1=O)cn2CCCCN1CCOCC1 [Example 115, 4,6-dihydroxy-2-{[5-methoxy-1-(4-morpholin-4-ylbutyl)-1H-indol-3-yl]methylene}-1-benzofuran-3(2H)-one] | 8.5 nM | 39.3 nM | 1190 nM | 136 nM | 980 nM | 
COc1ccc2c(c1)c(/C=C1\Oc3cc(O)cc(O)c3C1=O)c(C(=O)N(C)C)n2CCCN(C)C [Example 343, 3-[(Z)-(4,6-Dihydroxy-3-oxo-1-benzofuran-2(3H)-ylidene)methyl]-1-[3-(dimethylamino)propyl]-5-methoxy-N,N-dimethyl-1H-indole-2-carboxamide] | 2.5 nM | 12 nM | 292 nM | 71 nM | > 160 nM | 
